Reference: patent publication EP0367447A1, “Human epithelial transforming growth factor” (SMITHKLINE BEECHAM CORPORATION, priority 1988, dated 1990)
Ends that are not written are not given here.

Tested on: SW13 cells
Experiment: growth of SW13 cells in soft agar (colony formation, Halper et al. 1983, modified)
Format: cell-based, human
Conditions: qualitative; whether the substance stimulates or mimics the growth response
Experimental: By the term 'anchorage independent growth of SW13 cells in soft agar in an autocrine fashion' is meant that the anchorage independent growth of the SW13 cells in soft agar is stimulated by a growth factor produced by the SW13 cells. Such 'anchorage independent growth of SW13 cells in soft agar is measured by the method described by Halper et al., Cancer Research, 43, 1972-1979 (1983). Preferably such method is modified so that the base and upper layers contain 0.5% and 0.3% agarose, respectively in DMEM, 10% fetal bovine serum, and 5000 cells are plated per 3 cm dish.
h-TGFe activity was measured using growth of SW13 cells in soft agar as described by Halper et al., Cancer Research, 43, 1972-1979 (1983), except that the base and upper layers contained 0.5% and 0.3% agarose, respectively in DMEM, 10% fetal bovine serum, and 5000 cells were plated per 3 cm dish.
Human milk was delipidated by ether extraction and acidified with TFA (0.5% final concentration). The acidified material was filtered through a 0.45 µm membrane and concentrated 5-fold using an Amicon YM5 membrane. The concentrate was dialyzed against 0.05% TFA, lyophilized, reconstituted at 10 times the original concentration and bioassayed on SW13 cells.
Samples of colon carcinoma tissue from patients along with two specimens of normal adjacent colon were obtained at surgery and snap frozen in liquid nitrogen. […]

gastrin: Synthetic human gastrin obtained from Sigma (QGPWLEEEEEAYGWMDF; ends and bridges not checked; UniProt P01350 76-92, looked up)
colony formation by SW13 cells in the soft agar assay: not mimicked

bombesin
colony formation by SW13 cells in the soft agar assay: not mimicked
